Holding throughout (type): binding
One experiment addresses T1, hDAT (Homo sapiens, UniProt Q01959).
T1 construct: expressed in transfected cells; plated whole cells
In words: Human dopamine transporter scintillation proximity assay, competition with [3H]-Vanoxerine. As for the experimental part: This assay was used to determine the affinity of ligands for the dopamine transporter by competition with [^3H]-Vanoxerine.
Cells were plated four hours prior to experiment by placing approximately 30,000 cells per well (in PBS) on white, opaque Cell-Tak coated 96 well plates. Extra buffer was apriated from the cell plates using an ELx405 plate washer.
Compounds of the invention were diluted from 10 mM to 0.1 nM FAC (10 point curves, whole log/half log dilutions) via a Beckman Biomek 2000 using a 10-point dilution protocol. The mixtures were allowed to stand at room temperature for 30 minutes, and were then counted on a Packard TopCount LCS, a generic SPA counting protocol settings, Count Time (min.): 0.40, Background Subtract: none, Half-Life Correction: none, Quench Indicator: tSIS, Platemap blank subtraction: none, Cross talk reduction: Off).
The % inhibition was calculated for each compound tested [(Compound CPM at maximum concentration-Non-Specific CPM)/Total CPM*100].
(§1) where max=total binding, min=non specific binding, x=concentration (M) of the tested compound and n=Hill slope. The inhibition dissociation constant (Ki) of each compound was determined according to the method of Cheng-Prusoff and then converted into negative logarithm (pKi) of the Ki.
(In general: SPA uses beads or plates that emit light when radiolabelled molecules are held near them.)

A further experiment concerns the target T2, hNET transporter (Homo sapiens, UniProt P23975).
T2 construct: expressed in transfected cells; membranes prepared
In words: Human norepinephrine transporter (hNET) scintillation proximity assay, competition with [3H]-Nisoxetine. As for the experimental part: This assay was used to determine the affinity of ligands for the hNET transporter by competition with [^3H]-Nisoxetine. As in the hSERT assay of the above example, receptor-containing membranes were pre-coupled to the SPA beads and the binding of the appropriate radioligand to the transporter was measured. The light emission was proportional to the amount of bound radioligand, with unbound radioligand producing no signal.
HEK-293 cells (Tatsumi et al., Eur. J. Pharmacol. 1997, 30, 249-258) stably expressing recombinant hNET (Clone: HEK-hNET #2) were maintained with media (DMEM hi glucose with 10% FBS, 300 μg/ml G418 and 2 mM L-Glutamine) and incubated at 37° C. with 5% CO2. Cells were released from culture flasks using PBS for 1-2 minutes. The cells were subsequently centrifuged at 1000 g's for 5 minutes and resuspended in PBS prior to being used in the membrane preparation.
(§2) Cell membranes were prepared using a membrane preparation buffer of 50 mM TRIS (pH 7.4). Cell membranes were prepared from a single cube (7.5×10^9cells total). Cells were homogenized using a Polytron (setting medium for a 4 second burst). The homogenate was then centrifuged at 48,000×g for 15 minutes, the supernatant subsequently removed and discarded, and the pellet resuspended with fresh buffer. After a second centrifugation, the pellet was re-homogenized and brought to a final volume determined during the assay. Typically, membrane portions were aliquoted in 3-6 mg/mil (w:v). and stored at −80° C.
^3[H] […] Compounds of the invention were diluted from 10 mM to 0.1 nM FAC (10 point curves, whole log /half log dilutions) via a Beckman Biomek 2000 using a serial dilution protocol. The test compounds were then transferred (20 μl/well) and the radioligand was added at 50 μl/well. Membrane and beads were prepared to a ratio of 10 μg: 0.7 mg, with 0.7 mg PVT-WGA Amersham beads (Cat# RPQ0282V) added per well. 130 μl of the membrane: bead mixture was added to the assay plate. The mixtures were allowed to stand at room temperature for one hour, and were then counted on a Packard TopCount LCS, a generic SPA counting protocol settings (Energy Range: Low, Efficiency Mode: Normal, Region A: 1.50-35.00, Region B: 1.50-256.00, Count Time (min.): 0.40, Background Subtract: none, Half-Life Correction: no, Quench Indicator: tSIS, Platemap blank subtraction: No, Cross talk reduction: Off).
The % inhibition was calculated for each compound tested [(Compound CPM at maximum concentration-Non-Specific CPM)/Total CPM*100]. The concentration producing 50% inhibition (IC50) was determined using an iterative non-linear curve fitting technique with Activity Base/Xlfit using the following equation:
as §1

Another experiment concerns the target T3, hSERT transporter (Homo sapiens, UniProt P31645).
T3 construct: expressed in transfected cells; membranes prepared
The experiment is described as follows: Human serotonin transporter (hSERT) scintillation proximity assay, competition with [3H]-Citalopram.
Excerpt: Screening for Human Serotonin Transporter (hSERT) Antagonists Using a Scintillation Proximity Assay (SPA)
The screening assay of this example was used to determine the affinity of ligands at the hSERT transporter by competition with [^3H]-Citalopram.
Scintillation Proximity Assay (SPA) works by bringing radioligand within close proximity to the bead's scintillant to stimulate light emission. In this assay, the receptor-containing membranes were pre-coupled to the SPA beads and the binding of the appropriate radioligand to the transporter was measured. The light emission was proportional to the amount of bound radioligand. Unbound radioligand produced no signal as a result of distant proximity to scintillant (lack of energy transfer).
Cells are released from culture flasks using PBS for 1-2 minutes. The cells were subsequently centrifuged at 1000 g's for 5 minutes and resuspended in PBS prior to being used in the membrane preparation.
as §2, with “(7.5×10^9 cells” for “(7.5×10^9cells”, “3 mg/ml” for “3-6 mg/mil”
Compounds of the invention were diluted from 10 mM to 0.1 nM FAC (10 point curves, whole log/half log dilutions) via a Beckman Biomek 2000 using a serial dilution protocol. The test compounds were then transferred (20 μl/well) and the [^3H]-Citalopram radioligand was added at 50 μl/well. Membrane and beads were prepared to a ratio of 10 μg: 0.7 mg, with 0.7 mg PVT-WGA Amersham beads (Cat# RPQ0282V) added per well. 130 μl of the membrane: bead mixture was added to the assay plate.
The % inhibition was calculated for each compound tested [(Compound counts per minute (CPM) at maximum concentration-Non-Specific CPM)/Total CPM*100].
as §1

Setting [1] is: Table 1, read-out: pIC50 DAT (converted).
The mark [2] stands for this setting: Table 1, read-out: pIC50 NET (converted).
Where [3] appears, read: Table 1, read-out: pIC50 SERT (converted).

These results are taken from patent US20090318493A1 (Roche Palo Alto LLC, priority 2008, published 2009).

Like-named read-outs stand apart in the source and are kept apart here.

T3 sequence (P31645 whole entry): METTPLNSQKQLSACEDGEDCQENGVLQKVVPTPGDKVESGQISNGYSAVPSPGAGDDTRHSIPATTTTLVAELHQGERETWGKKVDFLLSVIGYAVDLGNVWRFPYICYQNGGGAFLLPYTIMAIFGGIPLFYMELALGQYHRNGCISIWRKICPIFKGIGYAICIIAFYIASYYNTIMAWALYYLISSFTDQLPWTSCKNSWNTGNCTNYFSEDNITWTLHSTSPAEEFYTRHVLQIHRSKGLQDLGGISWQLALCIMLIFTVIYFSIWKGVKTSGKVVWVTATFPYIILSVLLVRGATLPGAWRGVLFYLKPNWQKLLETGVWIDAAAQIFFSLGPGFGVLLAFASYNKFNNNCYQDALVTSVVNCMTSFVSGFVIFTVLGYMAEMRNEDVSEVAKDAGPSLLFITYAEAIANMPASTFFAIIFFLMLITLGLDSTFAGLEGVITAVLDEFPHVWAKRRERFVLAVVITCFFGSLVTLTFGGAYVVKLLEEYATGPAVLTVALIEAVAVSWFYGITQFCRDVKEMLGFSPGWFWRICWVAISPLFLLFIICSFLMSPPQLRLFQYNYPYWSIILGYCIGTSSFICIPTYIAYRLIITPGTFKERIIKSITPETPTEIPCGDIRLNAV
T2 sequence (P23975 whole entry): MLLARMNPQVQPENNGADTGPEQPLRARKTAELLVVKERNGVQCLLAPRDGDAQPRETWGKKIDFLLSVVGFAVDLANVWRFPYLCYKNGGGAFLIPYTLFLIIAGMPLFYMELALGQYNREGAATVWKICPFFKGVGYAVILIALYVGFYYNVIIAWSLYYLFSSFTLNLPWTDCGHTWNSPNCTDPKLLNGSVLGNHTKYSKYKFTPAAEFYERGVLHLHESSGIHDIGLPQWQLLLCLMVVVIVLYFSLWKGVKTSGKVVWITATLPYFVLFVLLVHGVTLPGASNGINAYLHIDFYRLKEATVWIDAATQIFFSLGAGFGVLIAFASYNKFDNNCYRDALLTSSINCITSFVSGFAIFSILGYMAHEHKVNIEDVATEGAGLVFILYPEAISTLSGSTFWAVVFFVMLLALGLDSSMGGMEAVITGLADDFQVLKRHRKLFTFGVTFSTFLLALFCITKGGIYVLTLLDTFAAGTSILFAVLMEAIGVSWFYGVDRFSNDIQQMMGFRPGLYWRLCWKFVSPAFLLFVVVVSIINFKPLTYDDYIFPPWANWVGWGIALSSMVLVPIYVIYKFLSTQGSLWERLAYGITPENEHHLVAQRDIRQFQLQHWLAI
T1 sequence (Q01959 whole entry): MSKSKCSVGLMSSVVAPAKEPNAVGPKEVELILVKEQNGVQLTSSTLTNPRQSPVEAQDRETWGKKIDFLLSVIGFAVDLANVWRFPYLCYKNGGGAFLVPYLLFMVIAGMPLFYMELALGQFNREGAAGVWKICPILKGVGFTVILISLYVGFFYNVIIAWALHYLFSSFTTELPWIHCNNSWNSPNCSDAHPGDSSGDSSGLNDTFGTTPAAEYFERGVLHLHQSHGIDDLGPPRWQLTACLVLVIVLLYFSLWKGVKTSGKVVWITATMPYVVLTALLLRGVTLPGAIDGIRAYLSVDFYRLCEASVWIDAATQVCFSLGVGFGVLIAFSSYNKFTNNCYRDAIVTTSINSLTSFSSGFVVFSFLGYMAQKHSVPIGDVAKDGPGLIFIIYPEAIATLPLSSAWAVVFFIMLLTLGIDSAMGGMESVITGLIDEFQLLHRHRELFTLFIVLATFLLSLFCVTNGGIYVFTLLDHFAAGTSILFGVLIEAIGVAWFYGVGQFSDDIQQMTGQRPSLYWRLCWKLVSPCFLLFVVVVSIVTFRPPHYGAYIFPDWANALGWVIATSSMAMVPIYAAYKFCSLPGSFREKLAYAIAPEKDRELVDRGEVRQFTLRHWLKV

On to `CC(C)(C)CCOc1cc(C(=O)C2(CCC(C)(C)C)CCNC2)ccc1Cl` (stereo not drawn) [Compound 4, [4-Chloro-3-(3,3-dimethyl-butoxy)-phenyl]-[3-(3,3-dimethyl-butyl)-pyrrolidin-3-yl]-methanone], for which the IC50 on hDAT (setting [1]) is 1 µM; at hNET transporter (setting [2]), 0.912 µM; on hSERT transporter (setting [3]) it was 0.0851 µM.
For the compound `CC(C)(C)CC[C@]1(C(=O)c2ccc(Cl)c(Cl)c2)CCCNC1` [Compound 59, (3,4-Dichloro-phenyl)-[(S)-3-(3,3-dimethyl-butyl)-piperidin-3-yl]-methanone], the figures for the IC50 at hDAT (setting [1]), on hNET transporter and on hSERT transporter were 0.324 µM, 0.0105 µM and 0.0145 µM, respectively.
`Cc1cc(C(=O)C2(CCC(C)(C)C)CCNC2)ccc1Cl` (stereo not drawn) [Compound 1, (4-Chloro-3-methyl-phenyl)-[3-(3,3-dimethyl-butyl)-pyrrolidin-3-yl]-methanone]: the IC50 was 0.00631 µM on hDAT, 0.0055 µM on hNET transporter (setting [2]) and 0.00151 µM on hSERT transporter.
As for `CCCC1(C(=O)c2ccc(Cl)c(S(=O)(=O)c3ccccc3)c2)CCNC1` (stereo not drawn) [Compound 16, (3-Benzenesulfonyl-4-chloro-phenyl)-(3-propyl-pyrrolidin-3-yl)-methanone], the IC50 at hDAT (setting [1]) was 0.661 µM; on hNET transporter (setting [2]), 4.9 µM; at hSERT transporter (setting [3]) it was 0.191 µM.
For `Cc1ccc(C(=O)C2(CCC(C)C)CCNCC2)cc1Cl` [Compound 38, (3-Chloro-4-methyl-phenyl)-[4-(3-methyl-butyl)-piperidin-4-yl]-methanone] the same measures were 0.0148 µM, 0.135 µM and 0.00347 µM.
Turning to `CC[C@]1(C(=O)c2ccc(Cl)c(Cl)c2)CC[C@@H]2CC[C@H]1N2` [Compound 49, (3,4-Dichloro-phenyl)-((1R,2S,5R)-2-ethyl-8-aza-bicyclo[3.2.1]oct-2-yl)-methanone], the IC50 at hDAT is 1.58 µM; at hNET transporter (setting [2]), 5.13 µM; on hSERT transporter, 0.631 µM.
Take `CC(C)CC[C@@]1(C(=O)c2cc(F)c(N)c(Cl)c2)CCNC1` [Compound 21, (4-Amino-3-chloro-5-fluoro-phenyl)-[(R)-3-(3-methyl-butyl)-pyrrolidin-3-yl]-methanone]: the results for the IC50 at hDAT, on hNET transporter (setting [2]) and at hSERT transporter were 0.00151 µM, 0.00191 µM and 0.00331 µM, respectively.
For the compound `CC(C)(C)CCC1(C(=O)c2cc(Cl)c(N)c(C(F)(F)F)c2)CCNC1` (stereo not drawn) [Compound 7, (4-Amino-3-chloro-5-trifluoromethyl-phenyl)-[3-(3,3-dimethyl-butyl)-pyrrolidin-3-yl]-methanone], the IC50 on hDAT (setting [1]) was 0.955 µM; on hNET transporter it was 0.0158 µM; at hSERT transporter it was 0.038 µM.
Consider `CC(C)(C)CCC1(C(=O)c2ccc(Cl)c(Cl)c2)CCCNC1` (stereo not drawn) [Compound 56, (3,4-Dichloro-phenyl)-[3-(3,3-dimethyl-butyl)-piperidin-3-yl]-methanone], for which the results for the IC50 at hDAT, at hNET transporter (setting [2]) and at hSERT transporter were 0.0151 µM, 0.0324 µM and 0.0174 µM, respectively.
For `CCCC1(C(=O)c2ccc(Cl)c(Oc3ccccc3)c2)CCNC1` (stereo in doubt) [Compound 30, (4-Chloro-3-phenoxy-phenyl)-((R)-3-propyl-pyrrolidin-3-yl)-methanone] the same measures were 0.00234 µM, 0.024 µM and 0.0186 µM.
In the case of `CC(C)C[C@@]1(C(=O)c2ccc(Cl)c(Cl)c2N)CCNC1` [Compound 2, (2-Amino-3,4-dichloro-phenyl)-((R)-3-isobutyl-pyrrolidin-3-yl)-methanone], the IC50 on hDAT (setting [1]) was 0.692 µM; at hNET transporter, 0.038 µM; at hSERT transporter, 0.00219 µM.
`CCCC1(C(=O)c2ccc(Cl)cc2Oc2ccccc2)CCNCC1` [Compound 40, (4-Chloro-2-phenoxy-phenyl)-(4-propyl-piperidin-4-yl)-methanone]: the values for the IC50 on hDAT (setting [1]), at hNET transporter (setting [2]) and on hSERT transporter (setting [3]) were 1.48 µM, 0.0275 µM and 0.0692 µM, respectively.
Consider `CC(C)C[C@]1(C(=O)c2ccc(N)c(Cl)c2)CCNC1` [Compound 28, (4-Amino-3-chloro-phenyl)-((S)-3-isobutyl-pyrrolidin-3-yl)-methanone], for which the IC50 on hDAT was 0.000832 µM; on hNET transporter (setting [2]), 0.00302 µM; on hSERT transporter it was 0.000117 µM.
On to `O=C(c1ccc(Cl)c(Cl)c1)C1(CC2CCCC2)CCNCC1` [Compound 39, (4-Cyclopentylmethyl-piperidin-4-yl)-(3,4-dichloro-phenyl)-methanone], for which the IC50 on hDAT (setting [1]) is 0.00316 µM; at hNET transporter (setting [2]), 0.0417 µM; at hSERT transporter (setting [3]), 0.00148 µM.
For `CCCC1(C(=O)c2ccc(Cl)c(Oc3ccc(C(F)(F)F)cc3)c2)CCNC1` (stereo not drawn) [Compound 32, [4-Chloro-3-(4-trifluoromethyl-phenoxy)-phenyl]-(3-propyl-pyrrolidin-3-yl)-methanone] the same measures were 0.331 µM, 0.2 µM and 0.166 µM.
On to `CC(C)C[C@@]1(C(=O)c2ccc(N)c(Cl)c2)CCNC1` [Compound 27, (4-Amino-3-chloro-phenyl)-((R)-3-isobutyl-pyrrolidin-3-yl)-methanone], for which the IC50 was 0.174 µM on hDAT (setting [1]), 0.055 µM on hNET transporter and 0.00832 µM on hSERT transporter.
With `CC(C)CC1(C(=O)c2cc(F)c(N)c(Cl)c2)CCNC1` (stereo in doubt) [Compound 24, (4-Amino-3-chloro-5-fluoro-phenyl)-((R)-3-isobutyl-pyrrolidin-3-yl)-methanone], the IC50 was 0.0251 µM on hDAT, 0.02 µM at hNET transporter (setting [2]) and 0.0245 µM on hSERT transporter.
For `CC(C)C[C@@]1(C(=O)c2ccc(Cl)c(Cl)c2)CC[C@@H]2CC[C@H]1N2` [Compound 47, (3,4-Dichloro-phenyl)-((1R,2S,5R)-2-isobutyl-8-aza-bicyclo[3.2.1]oct-2-yl)-methanone] the same measures were 0.024 µM, 0.2 µM and 0.00794 µM.
